Data published in article PMC10714432 (ACS Pharmacology & Translational Science, 2023).
pIC50: −log10 of the molar value.

Target: PDE5A1 (Homo sapiens, UniProt O76074)
Assay: cGMP hydrolysis by purified PDE5A1, cGMP Lumit bioluminescent readout
Format: biochemical

In the case of `CC(C)Cn1c(=O)n(C)c(=O)c2[nH]cnc21` [IBMX], the pIC50 was 5.42.
